Experimental data from US7365053B2, “Selective N-acylation of A82846 glygopeptides analogs” (priority 2000, dated 2008).
Converted amounts (≈) assume the structure as drawn.

Assays:
[1] = test system: Enterococcus faecalis 2041; assay: Broth micro-dilution MIC; assay type: cell-based; details: BHI medium
Description: (§1) The compounds of the present invention have in vitro activity against Gram-positive pathogenic bacteria. The antibacterial activity of the present compounds is illustrated in Tables III and IV. The minimal inhibitory concentrations (MICs) were determined using a standard broth micro-dilution assay. Table IV presents a comparison of the activity of illustrative compounds against representative vancomycin-resistant and vancomycin-sensitive enterococci (Enterococcus faecium and Enterococcus faecalis), mean geometric MIC (mcg/mL), as determined by the standard broth microdilution assay.
(§2) Assays for antimicrobial activity were performed using microbroth susceptibility testing methods as described by the NCCLS (National Committee for Clinical Laboratories Standards. 1990. Approved standard M7-A2. Methods for dilution antimicrobial susceptibility testing for bacteria that grow aerobically, 2 ed., Villanova Pa.). Brain-heart infusion medium (BHI) was used for testing of enterococci, and NCCLS recommendations for medium were followed for other bacteria.

[2] = test system: Enterococcus faecalis 276; assay: Broth micro-dilution MIC; assay type: cell-based; details: BHI medium
Description: as §1, §2

[3] = test system: Enterococcus faecium 180-1; assay: Broth micro-dilution MIC; assay type: cell-based; details: BHI medium
Description: as §1, §2

[4] = test system: Enterococcus faecium 180; assay: Broth micro-dilution MIC; assay type: cell-based; details: BHI medium
Description: as §1, §2

[5] = test system: Enterococcus gallinarum 245; assay: Broth micro-dilution MIC; assay type: cell-based; details: BHI medium
Description: as §1, §2

[6] = test system: Escherichia coli EC14; assay: Broth micro-dilution MIC; assay type: cell-based
Description: as §1, §2

[7] = test system: Haemophilus influenzae RD; assay: Broth micro-dilution MIC; assay type: cell-based
Description: as §1, §2

[8] = test system: Staphylococcus aureus 446; assay: Broth micro-dilution MIC; assay type: cell-based
Description: as §1, §2

[9] = test system: Staphylococcus aureus 447; assay: Broth micro-dilution MIC; assay type: cell-based
Description: as §1, §2

[10] = test system: Staphylococcus aureus 489; assay: Broth micro-dilution MIC; assay type: cell-based
Description: as §1, §2

[11] = test system: Staphylococcus aureus 491; assay: Broth micro-dilution MIC; assay type: cell-based
Description: as §1, §2

[12] = test system: Staphylococcus aureus S13E; assay: Broth micro-dilution MIC; assay type: cell-based
Description: as §1, §2

[13] = test system: Staphylococcus aureus SA1199A; assay: Broth micro-dilution MIC; assay type: cell-based
Description: as §1, §2

[14] = test system: Staphylococcus aureus SA1199B; assay: Broth micro-dilution MIC; assay type: cell-based
Description: as §1, §2

[15] = test system: Staphylococcus aureus SA1199; assay: Broth micro-dilution MIC; assay type: cell-based
Description: as §1, §2

[16] = test system: Staphylococcus aureus X400; assay: Broth micro-dilution MIC; assay type: cell-based
Description: as §1, §2

[17] = test system: Staphylococcus aureus X778; assay: Broth micro-dilution MIC; assay type: cell-based
Description: as §1, §2

[18] = test system: Staphylococcus epidermidis 270; assay: Broth micro-dilution MIC; assay type: cell-based
Description: as §1, §2

[19] = test system: Staphylococcus haemolyticus 105; assay: Broth micro-dilution MIC; assay type: cell-based
Description: as §1, §2

[20] = test system: Staphylococcus haemolyticus 415; assay: Broth micro-dilution MIC; assay type: cell-based
Description: as §1, §2

[21] = test system: Streptococcus pneumoniae P1; assay: Broth micro-dilution MIC; assay type: cell-based
Description: as §1, §2

[22] = test system: Streptococcus pyogenes C203; assay: Broth micro-dilution MIC; assay type: cell-based
Description: as §1, §2

[23] = test system: vancomycin-resistant enterococci; assay: In vitro activity against enterococci, broth microdilution; assay type: cell-based, Enterococcus faecium and Enterococcus faecalis; details: representative vancomycin-resistant enterococci (E. faecium and E. faecalis); BHI medium
Description: as §1, §2

[24] = test system: vancomycin-sensitive enterococci; assay: as above; assay type: cell-based, Enterococcus faecium and Enterococcus faecalis; details: representative vancomycin-sensitive enterococci (E. faecium and E. faecalis); BHI medium
Description: as §1, §2

How did the MIC [1] turn out when `CC(C)CC(C(=O)NC1C(=O)NC(CC(N)=O)C(=O)NC2C(=O)NC3C(=O)NC(C(=O)NC(C(=O)O)c4cc(O)cc(O)c4-c4cc3ccc4O)C(OC3CC(C)(N)C(O)C(C)O3)c3ccc(c(Cl)c3)Oc3cc2cc(c3OC2OC(CO)C(O)C(O)C2OC2CC(C)(N)C(O)C(C)O2)Oc2ccc(cc2Cl)C1O)N(C)C(=O)c1ccc(-c2ccccc2)cc1` (stereo not drawn) [Example 3] was run?
The MIC was “≦.06 μg/ml”.

What about the MIC [2] of the same compound?
The MIC was 0.125 µg/mL (≈ 0.0705 µM).

What about the MIC [3] of the same compound?
The MIC was “≦.06 μg/ml”.

And the MIC [4]?
Its MIC is 0.25 µg/mL (≈ 0.141 µM).

And the MIC [5]?
Its MIC is 2 µg/mL (≈ 1.13 µM).

What about the MIC [6] of the same compound?
The MIC was over 64 µg/mL.

What about the MIC [7] of the same compound?
Its MIC is over 64 µg/mL.

What about the MIC [8] of the same compound?
Its MIC is 0.5 µg/mL (≈ 0.282 µM).

And the MIC [9]?
The MIC was 16 µg/mL (≈ 9.03 µM).

And the MIC [10]?
Its MIC is 0.5 µg/mL (≈ 0.282 µM).

And the MIC [11]?
Its MIC is 0.5 µg/mL (≈ 0.282 µM).

And the MIC [12]?
Its MIC is 0.25 µg/mL (≈ 0.141 µM).

And the MIC [13]?
The MIC was 1 µg/mL (≈ 0.564 µM).

What about the MIC [14] of the same compound?
The MIC was 2 µg/mL (≈ 1.13 µM).

And the MIC [15]?
The MIC was 1 µg/mL (≈ 0.564 µM).

And the MIC [16]?
The MIC was 0.5 µg/mL (≈ 0.282 µM).

What about the MIC [17] of the same compound?
The MIC was 1 µg/mL (≈ 0.564 µM).

What about the MIC [18] of the same compound?
Its MIC is 2 µg/mL (≈ 1.13 µM).

And the MIC [19]?
The MIC was 4 µg/mL (≈ 2.26 µM).

What about the MIC [20] of the same compound?
Its MIC is 2 µg/mL (≈ 1.13 µM).

And the MIC [21]?
Its MIC is “≦.06 μg/ml”.

And the MIC [22]?
The MIC was “≦.06 μg/ml”.

What about the “Mean geometric MIC, Vancomycin Resistant Strains” value [23] of the same compound?
Its value is 4 µg/mL.

What about the “Mean geometric MIC, Vancomycin Sensitive Strains” value [24] of the same compound?
Its value is 0.19 µg/mL.
